Measurements from patent publication US20080113926A1, “9A-Carbamoyl-Y-Aminopropyl- And 9A-Thiocabamoyl-Y-Aminopropyl-Azalides With Antimalarial Activity” (priority 2005, published 2008).
In brackets after ≈: the same amount, converted by molar mass.

Key:
[1] = system: Plasmodium falciparum TM91C235; experiment: In vitro antimalarial [3H]-hypoxanthine incorporation serial dilution assay, TM91C235; assay type: cell-based; conditions: P. falciparum TM91C235, parasites exposed for 72 hours; for IC50: Plasmodium falciparum
[2] = system: Plasmodium falciparum clone CDC/Sierra Leone I (D-6); experiment: In vitro antimalarial [3H]-hypoxanthine incorporation serial dilution assay, D6; assay type: cell-based; conditions: P. falciparum D6, parasites exposed for 72 hours; for IC50: Plasmodium falciparum
Source text: (§1) The in vitro screens for intrinsic antimalarial activity were based on modifications of the procedures described by Desjardins R E, Canfield C J, Haynes J D, Chulay J D. (Quantitative assessment of antimalarial activity in vitro by a semiautomated microdilution technique. Antimicrob Agents Chemother. 1979 December; 16(6):710-8), Chulay J D, Haynes J D, Diggs C L. (Plasmodium falciparum: Assessment of in vitro growth by [3H]hypoxanthine incorporation. Exp. Parasitol. 1983 55:138-146), and Milhous W K, Weatherly N F, Bowdre J H, Desjardins R E. (In vitro activities of and mechanisms of resistance to antifol antimalarial drugs. Antimicrob Agents Chemother. 1985 April; 27(4):525-30). The system was limited to the assessment of the intrinsic activity against the erythrocytic asexual life cycle (blood schizontocides). Two Plasmodium falciparum clones from CDC/Indochina III (W-2) and CDC/Sierra Leone I (D-6) (Oduola A M, Weatherly N F, Bowdre J H, Desjardins R E. Plasmodium falciparum: cloning by single-erythrocyte micromanipulation and heterogeneity in vitro. Exp Parasitol. 1988 66(1):86-95) were used for all assays. TM91C235, a multiple drug resistant isolate from Thailand, was used for the prescreening assay. W-2 is resistant to chloroquine, quinine, and pyrimethamine and susceptible to mefloquine. D-6 tends to be more resistant to mefloquine and susceptible to chloroquine, quinine, and pyrimethamine. All documents cited in this paragraph are incorporated by reference in their entirety.
(§2) All parasites were maintained in continuous long term cultures in RPMI-1640 medium supplemented with 6% washed human A positive (A+) (erythrocytes, 25 mM Hepes, […], and 10% heat inactivated A+ human plasma or ALBUMAX® (lipid-rich bovine serum albumin; Invitrogen, Carlsbad, Calif.). All cultures and assays were conducted at 37° C. under an atmosphere of 5% CO2 and 5% O2, with a balance of N2.
(§3) The prescreening assay uses TM91C235 diluted at a 0.4% parasitemia in a 1% hematocrit in folic acid free and p-aminobenzoic acid free media RPMI-1640 and ALBUMAX®. One mg of the compound is typically dissolved in 100 μl of dimethyl sulfoxide (DMSO). The compound is further diluted in culture medium (FF) with ALBUMAX® for the first initial starting concentration. The rest of the stock drug solution was kept at −70° C. The isolate was preexposed, in duplicate, at three concentrations (25,000 ng/ml, 2,500 ng/ml, and 25 ng/ml) of the test compound for 48 hr in a 96-well microtiter plate (MTP) using the BIOMEK® 2000 automated laboratory workstation. Each MTP contains chloroquine as control to assess the relative activity of the compound and to monitor the response of TM91C235.
(§4) After the preincubation, [^3H]-hypoxanthine was added to each well of the MTP. (The assay relies on the incorporation of radiolabeled hypoxanthine by the parasites, which indicates reproduction, and inhibition of isotope incorporation was attributed to activity of known or candidate antimalarial drugs). After 72 hr of total incubation time, the MTP were frozen to lyse the erythrocytes and parasites. The parasite DNA was recovered by harvesting the lysate onto glass-fiber filter plates using a Packard FilterMate™ Cell Harvester. The radioactivity was counted on a Packard TopCount™ microplate scintillation counter. The results were recorded as counts per minutes (CPM) per well at each drug concentration divided by the arithmetic mean of the CPM from the three untreated infection parasite control wells.
(§5) The serial dilution assay was conducted using the same assay conditions and stock solution of the compound used for the preliminary screen, described above. Both the D-6 and the W-2 clones were used. The compounds were diluted two-fold over 11 different concentration ranges with a starting concentration that was based on the preliminary screen. […]

[3] = system: Plasmodium falciparum clone CDC/Indochina III (W-2); experiment: In vitro antimalarial [3H]-hypoxanthine incorporation serial dilution assay, W2; assay type: cell-based; conditions: P. falciparum W2, parasites exposed for 72 hours; for IC50: Plasmodium falciparum, W2, 72 h
Source text: as §1, §2, §3, §4, §5

[4] = system: Plasmodium falciparum; conditions: non-immune patients, as compared to controls; cited from earlier work
[5] = system: Plasmodium vivax; conditions: non-immune patients, as compared to controls; cited from earlier work
[6] = system: Plasmodium cynomolgi; conditions: rhesus monkey; cited from earlier work
[7] = system: Plasmodium berghei; conditions: cited from earlier work
[8] = system: Plasmodium yoelii nigeriensis; conditions: cited from earlier work

`CC[C@H]1OC(=O)[C@H](C)[C@@H](O[C@H]2C[C@@](C)(OC)[C@@H](O)[C@H](C)O2)[C@H](C)[C@@H](O[C@@H]2O[C@H](C)C[C@H](N(C)C)[C@H]2O)[C@](C)(O)C[C@@H](C)CN(CCCN(CCC#N)C(=O)Nc2cc(OC)c(OC)c(OC)c2)[C@H](C)[C@@H](O)[C@]1(C)O` [Compound 16] gave an IC50 [1] of 0.272 µg/mL (≈ 0.258 µM), an IC50 [2] of 0.487 µg/mL (≈ 0.462 µM) and an IC50 [3] of over 1.76 µg/mL.

With `CC[C@H]1OC(=O)[C@H](C)[C@@H](O[C@H]2C[C@@](C)(OC)[C@@H](O)[C@H](C)O2)[C@H](C)[C@@H](O[C@@H]2O[C@H](C)C[C@H](N(C)C)[C@H]2O)[C@](C)(O)C[C@@H](C)CN(CCCNC(=O)NCc2ccccc2)[C@H](C)[C@@H](O)[C@]1(C)O` [Compound 17] the IC50 [1] was 0.278 µg/mL (≈ 0.3 µM), the IC50 [2] was 0.566 µg/mL (≈ 0.612 µM) and the IC50 [3] was 0.351 µg/mL (≈ 0.379 µM).

With `CC[C@H]1OC(=O)[C@H](C)[C@@H](O[C@H]2C[C@@](C)(OC)[C@@H](O)[C@H](C)O2)[C@H](C)[C@@H](O[C@@H]2O[C@H](C)C[C@H](N(C)C)[C@H]2O)[C@](C)(O)C[C@@H](C)CN(CCCN(CCC#N)C(=O)NCc2ccccc2)[C@H](C)[C@@H](O)[C@]1(C)O` [Compound 18] the IC50 [1] was 0.522 µg/mL (≈ 0.534 µM), the IC50 [2] was 0.776 µg/mL (≈ 0.793 µM) and the IC50 [3] was 0.405 µg/mL (≈ 0.414 µM).

For `CC[C@H]1OC(=O)[C@H](C)[C@@H](O[C@H]2C[C@@](C)(OC)[C@@H](O)[C@H](C)O2)[C@H](C)[C@@H](O[C@@H]2O[C@H](C)C[C@H](N(C)C)[C@H]2O)[C@](C)(O)C[C@@H](C)CN(CCCN(CCC#N)C(=O)NC(C)C)[C@H](C)[C@@H](O)[C@]1(C)O` [Compound 19], the IC50 [1] was 1.19 µg/mL (≈ 1.28 µM), the IC50 [2] was over 0.797 µg/mL and the IC50 [3] was over 1.76 µg/mL.

Compound `CC[C@H]1OC(=O)[C@H](C)[C@@H](O[C@H]2C[C@@](C)(OC)[C@@H](O)[C@H](C)O2)[C@H](C)[C@@H](O[C@@H]2O[C@H](C)C[C@H](N(C)C)[C@H]2O)[C@](C)(O)C[C@@H](C)CN(CCCNC(=O)NS(=O)(=O)c2ccc(C)cc2)[C@H](C)[C@@H](O)[C@]1(C)O` [Compound 20] has an IC50 [1] of 1.06 µg/mL (≈ 1.07 µM), an IC50 [2] of over 0.797 µg/mL and an IC50 [3] of over 1.76 µg/mL.

`CC[C@H]1OC(=O)[C@H](C)[C@@H](O[C@H]2C[C@@](C)(OC)[C@@H](O)[C@H](C)O2)[C@H](C)[C@@H](O[C@@H]2O[C@H](C)C[C@H](N(C)C)[C@H]2O)[C@](C)(O)C[C@@H](C)CN(CCCNC(=O)NS(=O)(=O)c2ccccc2C)[C@H](C)[C@@H](O)[C@]1(C)O` [Compound 21] gave an IC50 [1] of over 1.62 µg/mL, an IC50 [2] of 0.427 µg/mL (≈ 0.432 µM) and an IC50 [3] of 1 µg/mL (≈ 1.01 µM).

In the case of `CC[C@H]1OC(=O)[C@H](C)[C@@H](O[C@H]2C[C@@](C)(OC)[C@@H](O)[C@H](C)O2)[C@H](C)[C@@H](O[C@@H]2O[C@H](C)C[C@H](N(C)C)[C@H]2O)[C@](C)(O)C[C@@H](C)CN(CCCNC(=O)NS(=O)(=O)c2ccccc2Cl)[C@H](C)[C@@H](O)[C@]1(C)O` [Compound 22], the IC50 [1] is reported as 1.53 µg/mL (≈ 1.52 µM), the IC50 [2] is reported as over 0.797 µg/mL and the IC50 [3] is reported as over 1.76 µg/mL.

Work on `CC[C@H]1OC(=O)[C@H](C)[C@@H](O[C@H]2C[C@@](C)(OC)[C@@H](O)[C@H](C)O2)[C@H](C)[C@@H](O[C@@H]2O[C@H](C)C[C@H](N(C)C)[C@H]2O)[C@](C)(O)C[C@@H](C)CN(CCCN(CCC#N)C(=O)Nc2ccccc2C(F)(F)F)[C@H](C)[C@@H](O)[C@]1(C)O` [Compound 23] yielded an IC50 [1] of 0.153 µg/mL (≈ 0.148 µM), an IC50 [2] of 0.535 µg/mL (≈ 0.518 µM) and an IC50 [3] of 0.0626 µg/mL (≈ 0.0606 µM).

For `CC[C@H]1OC(=O)[C@H](C)[C@@H](O[C@H]2C[C@@](C)(OC)[C@@H](O)[C@H](C)O2)[C@H](C)[C@@H](O[C@@H]2O[C@H](C)C[C@H](N(C)C)[C@H]2O)[C@](C)(O)C[C@@H](C)CN(CCCN(CCC#N)C(=O)Nc2cc(OC)c(OC)c(OC)c2)[C@H](C)[C@@H](O)[C@]1(C)O` [Compound 24], the “IC50 TM91C235” value [1] was 271.9 ng/mL (≈ 0.258 µM), the “IC50 D6” value [2] was 487.2 ng/mL (≈ 0.462 µM) and the “IC50 W2” value [3] was 1788.1 ng/mL (≈ 1.7 µM).

Compound `CC[C@H]1OC(=O)[C@H](C)[C@@H](O)[C@H](C)[C@@H](O[C@@H]2O[C@H](C)C[C@H](N(C)C)[C@H]2O)[C@](C)(O)C[C@@H](C)CN(CCCNC(=S)NCc2ccccc2)[C@H](C)[C@@H](O)[C@]1(C)O` [Compound 25] has an IC50 [1] of 1.21 µg/mL (≈ 1.54 µM), an IC50 [2] of over 0.797 µg/mL and an IC50 [3] of over 1.76 µg/mL.

For `CC[C@H]1OC(=O)[C@H](C)[C@@H](O)[C@H](C)[C@@H](O[C@@H]2O[C@H](C)C[C@H](N(C)C)[C@H]2O)[C@](C)(O)C[C@@H](C)CN(CCCN(CCC#N)C(=O)NC(C)c2cccc3ccccc23)[C@H](C)[C@@H](O)[C@]1(C)O` (stereo partly drawn) [Compound 26], the IC50 [1] was 0.39 µg/mL (≈ 0.441 µM), the IC50 [2] was over 0.797 µg/mL and the IC50 [3] was 0.361 µg/mL (≈ 0.408 µM).

Work on `CC[C@H]1OC(=O)[C@H](C)[C@@H](O)[C@H](C)[C@@H](O[C@@H]2O[C@H](C)C[C@H](N(C)C)[C@H]2O)[C@](C)(O)C[C@@H](C)CN(CCCNC(=O)Nc2ccc3ccccc3c2)[C@H](C)[C@@H](O)[C@]1(C)O` [Compound 27] yielded an IC50 [1] of 0.312 µg/mL (≈ 0.389 µM), an IC50 [2] of 0.716 µg/mL (≈ 0.891 µM) and an IC50 [3] of 0.467 µg/mL (≈ 0.582 µM).

Compound `CC[C@H]1OC(=O)[C@H](C)[C@@H](O)[C@H](C)[C@@H](O[C@@H]2O[C@H](C)C[C@H](N(C)C)[C@H]2O)[C@](C)(O)C[C@@H](C)CN(CCCNC(=S)NCCCc2ccccc2)[C@H](C)[C@@H](O)[C@]1(C)O` [Compound 28] has an IC50 [1] of 0.255 µg/mL (≈ 0.314 µM), an IC50 [2] of 0.864 µg/mL (≈ 1.06 µM) and an IC50 [3] of 0.41 µg/mL (≈ 0.506 µM).

Work on `CC[C@H]1OC(=O)[C@H](C)[C@@H](O)[C@H](C)[C@@H](O[C@@H]2O[C@H](C)C[C@H](N(C)C)[C@H]2O)[C@](C)(O)C[C@@H](C)CN(CCCNC(=S)Nc2cccc3ccccc23)[C@H](C)[C@@H](O)[C@]1(C)O` [Compound 29] yielded an IC50 [1] of 0.297 µg/mL (≈ 0.363 µM), an IC50 [2] of 0.954 µg/mL (≈ 1.16 µM) and an IC50 [3] of 0.172 µg/mL (≈ 0.21 µM).

Work on `CC[C@H]1OC(=O)[C@H](C)[C@@H](O)[C@H](C)[C@@H](O[C@@H]2O[C@H](C)C[C@H](N(C)C)[C@H]2O)[C@](C)(O)C[C@@H](C)CN(CCCNC(=O)Nc2cccc3ccccc23)[C@H](C)[C@@H](O)[C@]1(C)O` [Compound 30] yielded an IC50 [1] of 0.508 µg/mL (≈ 0.633 µM), an IC50 [2] of over 0.797 µg/mL and an IC50 [3] of 0.471 µg/mL (≈ 0.586 µM).

Work on `CC[C@H]1OC(=O)[C@H](C)[C@@H](O[C@H]2C[C@@](C)(OC)[C@@H](O)[C@H](C)O2)[C@H](C)[C@@H](O[C@@H]2O[C@H](C)C[C@H](N(C)C)[C@H]2O)[C@](C)(O)C[C@@H](C)CN(C)[C@H](C)[C@@H](O)[C@]1(C)O` [azithromycin, reference compound] yielded an IC50 [1] of 1.62 µg/mL (≈ 2.16 µM), an IC50 [2] of 0.797 µg/mL (≈ 1.06 µM) and an IC50 [3] of 1.76 µg/mL (≈ 2.35 µM). The “prophylactic efficacy for Plasmodium falciparum” value [4] was 71.6%, the “prophylactic efficacy for Plasmodium vivax” value [5] was 98.9% and the “efficacy in monkey model” value [6] was “active”.

In the case of midecamycinin, the “activity in mouse model, Plasmodium berghei” value [7] is listed as “active”, the “activity in mouse model, Plasmodium yoelii nigeriensis” value [8] is listed as “active” and the “efficacy in monkey model” value [6] is listed as “no efficacy”.
